Data on 8 molecules can be found in ChEMBL document CHEMBL1201862, “PubChem BioAssay data set” (2004).

Test [1] in a line: Luminescence Cell-Based Dose Confirmation HTS to Identify Activators of 5'UTR Stem-Loop Driven Alpha-Synuclein mRNA Translation in H4 Neuroglioblastoma Cells. [Related pubchem assays: 1829 (Project Summary), 1814 (Primary HTS)]. Format: functional.
For a further test, the system named is H4. Briefly: Luminescence Cell-Based Dose Response HTS to Identify Activators of 5'UTR Stem-Loop Driven Prion Protein mRNA Translation in H4 Neuroglioblastoma Cells. [Related pubchem assays: 1829 (Project Summary), 1814 (Primary HTS)]. The following applies: Homo sapiens. Format: functional.
Test [2] is described as follows: decrease of insulin promoter-GFP reporter – imaging, high-content screening, mouse beta cells (AID 1628). The class given is functional. The note with it: MIN6.
In test [3] the target is Protein-tyrosine kinase 2-beta (Homo sapiens, UniProt Q14289).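 Note: potency of inhibitors of PYK2 kinase phosphorylation of poly-GT substrate.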
Chain of Protein-tyrosine kinase 2-beta (Q14289 whole entry): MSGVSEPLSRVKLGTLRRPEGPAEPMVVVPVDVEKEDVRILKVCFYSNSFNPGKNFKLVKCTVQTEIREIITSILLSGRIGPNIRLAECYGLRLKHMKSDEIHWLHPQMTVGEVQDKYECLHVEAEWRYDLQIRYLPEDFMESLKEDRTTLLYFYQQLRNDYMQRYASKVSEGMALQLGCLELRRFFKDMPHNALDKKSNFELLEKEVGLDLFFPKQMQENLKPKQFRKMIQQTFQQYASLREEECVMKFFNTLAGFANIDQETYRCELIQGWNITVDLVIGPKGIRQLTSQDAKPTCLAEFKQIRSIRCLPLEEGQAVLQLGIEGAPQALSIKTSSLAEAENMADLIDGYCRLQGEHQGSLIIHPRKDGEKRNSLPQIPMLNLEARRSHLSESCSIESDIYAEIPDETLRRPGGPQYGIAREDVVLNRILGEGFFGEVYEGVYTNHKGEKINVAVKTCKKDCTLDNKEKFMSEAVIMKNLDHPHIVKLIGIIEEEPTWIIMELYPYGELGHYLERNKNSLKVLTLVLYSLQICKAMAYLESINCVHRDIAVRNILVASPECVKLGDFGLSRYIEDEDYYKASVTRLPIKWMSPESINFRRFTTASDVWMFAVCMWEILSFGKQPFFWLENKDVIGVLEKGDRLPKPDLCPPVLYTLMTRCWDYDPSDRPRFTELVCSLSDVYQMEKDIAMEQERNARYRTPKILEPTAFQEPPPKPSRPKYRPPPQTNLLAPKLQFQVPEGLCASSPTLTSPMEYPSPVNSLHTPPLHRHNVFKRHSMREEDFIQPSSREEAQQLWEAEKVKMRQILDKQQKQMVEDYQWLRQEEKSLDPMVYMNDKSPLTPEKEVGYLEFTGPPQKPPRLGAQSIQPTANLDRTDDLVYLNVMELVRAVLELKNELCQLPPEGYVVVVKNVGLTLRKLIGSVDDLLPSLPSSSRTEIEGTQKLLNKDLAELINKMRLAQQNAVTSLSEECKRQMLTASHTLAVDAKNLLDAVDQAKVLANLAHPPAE
Test [4] in a line: MIN6 cell viability loss – mouse insulinoma, cytotoxicity control, dose response (AID 2122).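 Note: confirmatory high-throughput counterscreen run to flag cytotoxic compounds.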 Format: functional.
Test [5] can be described thus: Luminescence Cell-Based Dose Response HTS to Identify Activators of Luciferase Translation or Activity in H4 […] Cells. [Related pubchem assays: 1829 (Project Summary), 1814 (Primary HTS)]. The class given is functional.
The target in test [6] is Glyceraldehyde-3-phosphate dehydrogenase (Homo sapiens, UniProt P04406).
Chain of Glyceraldehyde-3-phosphate dehydrogenase (P04406 whole entry): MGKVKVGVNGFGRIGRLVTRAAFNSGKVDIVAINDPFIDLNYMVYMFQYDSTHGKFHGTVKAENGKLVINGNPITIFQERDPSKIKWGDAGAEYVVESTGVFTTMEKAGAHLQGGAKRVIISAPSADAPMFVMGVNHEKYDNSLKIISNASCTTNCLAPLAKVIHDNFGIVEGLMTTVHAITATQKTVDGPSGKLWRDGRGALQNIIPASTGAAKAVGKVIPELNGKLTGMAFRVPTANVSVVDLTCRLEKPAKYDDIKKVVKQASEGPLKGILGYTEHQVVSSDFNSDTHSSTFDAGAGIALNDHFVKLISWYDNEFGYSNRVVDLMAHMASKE
The target of test [7] is T1, Bcl-2-related protein A1 (Mus musculus, UniProt Q07440).
T1 sequence (Q07440 whole entry): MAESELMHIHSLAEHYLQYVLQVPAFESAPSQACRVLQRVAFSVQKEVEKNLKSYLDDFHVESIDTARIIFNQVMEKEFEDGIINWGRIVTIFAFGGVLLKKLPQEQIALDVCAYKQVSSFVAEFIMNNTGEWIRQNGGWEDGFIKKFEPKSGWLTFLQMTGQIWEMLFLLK
The experiment in a line: Bfl-1 binding inhibitors, SAR follow-up, biochemical, fluorescence polarization (AID 1070). Background: Polarisation of emitted light reports the rotation of a fluorescent probe.

The target in test [8] is T1, Bcl-2-related protein A1. Briefly: small-molecule antagonists of Bfl-1/BH3 interaction – biochemical, TR-FRET, mouse Bfl-1, confirmation (AID 621). (In general: Time-resolved FRET reads energy transfer from a long-lived donor to a nearby acceptor.)
In test [9] the target is Sphingosine 1-phosphate receptor 2 (Homo sapiens, UniProt O95136). Briefly: Dose Response Cell Based Assay for Agonists of the S1P2 Receptor of Purchased Analogues. [Related pubchem assays: 729, 843, 854, 736 ]. The class given is functional.
Chain of Sphingosine 1-phosphate receptor 2 (O95136 whole entry): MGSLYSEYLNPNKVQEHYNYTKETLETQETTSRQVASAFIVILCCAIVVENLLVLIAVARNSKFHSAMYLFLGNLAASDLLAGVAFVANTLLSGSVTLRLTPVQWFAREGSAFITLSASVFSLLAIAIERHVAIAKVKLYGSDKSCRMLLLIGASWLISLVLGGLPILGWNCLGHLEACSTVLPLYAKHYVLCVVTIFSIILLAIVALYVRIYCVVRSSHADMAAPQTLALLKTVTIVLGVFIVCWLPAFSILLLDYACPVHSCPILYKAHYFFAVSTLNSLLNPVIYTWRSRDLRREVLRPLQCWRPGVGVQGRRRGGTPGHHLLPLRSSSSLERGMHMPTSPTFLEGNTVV
Test [10] deals with T2, Induced myeloid leukemia cell differentiation protein Mcl-1 (Homo sapiens, UniProt Q07820). Briefly: blockers of MCL1 binding to BIM peptide – biochemical, fluorescence polarization, BIM-BH3 peptide, 1536-well, dose response (AID 2217).
T2 sequence (Q07820 whole entry): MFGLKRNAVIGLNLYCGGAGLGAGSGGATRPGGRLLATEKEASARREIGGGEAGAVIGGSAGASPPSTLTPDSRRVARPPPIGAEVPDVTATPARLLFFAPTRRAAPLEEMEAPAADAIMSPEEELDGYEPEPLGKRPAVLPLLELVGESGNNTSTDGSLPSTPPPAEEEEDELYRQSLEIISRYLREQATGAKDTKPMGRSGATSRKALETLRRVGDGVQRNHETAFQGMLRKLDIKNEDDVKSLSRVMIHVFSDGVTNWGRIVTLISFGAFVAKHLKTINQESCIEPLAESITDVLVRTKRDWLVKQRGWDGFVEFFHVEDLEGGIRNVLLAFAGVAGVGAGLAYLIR
In another test the target is Bcl-2-like protein 1 (Homo sapiens, UniProt Q07817). The experiment in a line: blockers of BCLXL peptide binding – biochemical, fluorescence polarization, 1536-well, selectivity assay for MCL1 inhibitor project, dose response (AID 2218).
Chain of Bcl-2-like protein 1 (Q07817 whole entry): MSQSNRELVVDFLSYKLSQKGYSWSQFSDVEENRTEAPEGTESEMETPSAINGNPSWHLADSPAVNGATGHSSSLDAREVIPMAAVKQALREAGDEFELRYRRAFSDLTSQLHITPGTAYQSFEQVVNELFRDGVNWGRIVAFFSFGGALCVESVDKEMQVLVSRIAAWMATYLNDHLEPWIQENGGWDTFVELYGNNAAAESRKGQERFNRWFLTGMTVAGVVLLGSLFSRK
Test [11] concerns the target T2, Induced myeloid leukemia cell differentiation protein Mcl-1. Format: functional.
In the next test the target is Ion channel NompC (Danio rerio, UniProt Q7T1G6). Briefly: Fluorescence counterscreen assay for TRPML3 agonists: dose response cell-based high-throughput screening assay to identify agonists of the transient receptor potential channel N1 (TRPN1). [Related pubchem assays: 1526, 1424, 1448 ]. The class given is functional.
In test [12] the target is T3, Heat shock factor protein 1 (Mus musculus, UniProt P38532).
T3 sequence (P38532 whole entry): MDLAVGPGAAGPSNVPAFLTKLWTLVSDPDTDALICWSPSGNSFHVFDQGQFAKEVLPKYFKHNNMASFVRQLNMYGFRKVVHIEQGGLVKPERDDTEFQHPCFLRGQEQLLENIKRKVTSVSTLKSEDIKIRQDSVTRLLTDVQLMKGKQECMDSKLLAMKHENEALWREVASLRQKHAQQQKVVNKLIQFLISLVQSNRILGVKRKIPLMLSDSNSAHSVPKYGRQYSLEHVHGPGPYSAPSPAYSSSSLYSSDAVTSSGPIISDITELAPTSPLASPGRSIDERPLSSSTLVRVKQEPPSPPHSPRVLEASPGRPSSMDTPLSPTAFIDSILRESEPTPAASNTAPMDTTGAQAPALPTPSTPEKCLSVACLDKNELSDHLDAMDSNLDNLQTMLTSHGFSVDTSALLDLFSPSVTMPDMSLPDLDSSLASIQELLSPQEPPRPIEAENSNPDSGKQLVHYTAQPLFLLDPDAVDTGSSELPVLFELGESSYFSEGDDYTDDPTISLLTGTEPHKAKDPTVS
Briefly: decrease of HSF1-responsive luciferase luminescence – cell-based, NIH3T3, dose retest, confirmation (AID 2382).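 Note: NIH3T3 fibroblasts with HSF1-driven luciferase reporter stressed by proteasome inhibitor MG132; luminescence from HSF1-driven luciferase expression after 8 hours of MG132 stress.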 The class given is functional.

The target in the next test is T4, Mucolipin-3 (Homo sapiens, UniProt Q8TDD5).
T4 sequence (Q8TDD5 whole entry): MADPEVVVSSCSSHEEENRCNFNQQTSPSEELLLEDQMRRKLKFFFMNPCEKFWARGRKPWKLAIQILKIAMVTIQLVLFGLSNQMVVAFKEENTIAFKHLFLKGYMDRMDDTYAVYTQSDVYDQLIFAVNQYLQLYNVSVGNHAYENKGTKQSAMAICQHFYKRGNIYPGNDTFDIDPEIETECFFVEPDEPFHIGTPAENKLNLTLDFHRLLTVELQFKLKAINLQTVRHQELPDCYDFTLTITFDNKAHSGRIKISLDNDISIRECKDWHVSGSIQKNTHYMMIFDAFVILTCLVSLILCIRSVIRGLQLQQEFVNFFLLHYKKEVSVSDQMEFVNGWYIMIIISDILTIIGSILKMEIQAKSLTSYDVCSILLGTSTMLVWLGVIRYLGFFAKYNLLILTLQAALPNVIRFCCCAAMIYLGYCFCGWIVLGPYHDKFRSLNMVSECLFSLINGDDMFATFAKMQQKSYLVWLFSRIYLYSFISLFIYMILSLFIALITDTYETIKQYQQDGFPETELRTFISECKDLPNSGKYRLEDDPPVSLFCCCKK
Briefly: Dose response cell-based high-throughput screening assay for agonists of the transient receptor potential channel ML3 (TRPML3). [Related pubchem assays: 1526, 1424, 1448 ]. Format: functional.

Test [13] concerns the target Tyrosyl-DNA phosphodiesterase 2 (Homo sapiens, UniProt O95551). The experiment in a line: potency against TDP2 phosphodiesterase activity – biochemical, epi absorbance, IC50, dose response (AID 743297).
For test [14], the target named is T5, Replicative DNA helicase DnaB (Mycobacterium tuberculosis, UniProt P9WMR3).
T5 sequence (P9WMR3 whole entry): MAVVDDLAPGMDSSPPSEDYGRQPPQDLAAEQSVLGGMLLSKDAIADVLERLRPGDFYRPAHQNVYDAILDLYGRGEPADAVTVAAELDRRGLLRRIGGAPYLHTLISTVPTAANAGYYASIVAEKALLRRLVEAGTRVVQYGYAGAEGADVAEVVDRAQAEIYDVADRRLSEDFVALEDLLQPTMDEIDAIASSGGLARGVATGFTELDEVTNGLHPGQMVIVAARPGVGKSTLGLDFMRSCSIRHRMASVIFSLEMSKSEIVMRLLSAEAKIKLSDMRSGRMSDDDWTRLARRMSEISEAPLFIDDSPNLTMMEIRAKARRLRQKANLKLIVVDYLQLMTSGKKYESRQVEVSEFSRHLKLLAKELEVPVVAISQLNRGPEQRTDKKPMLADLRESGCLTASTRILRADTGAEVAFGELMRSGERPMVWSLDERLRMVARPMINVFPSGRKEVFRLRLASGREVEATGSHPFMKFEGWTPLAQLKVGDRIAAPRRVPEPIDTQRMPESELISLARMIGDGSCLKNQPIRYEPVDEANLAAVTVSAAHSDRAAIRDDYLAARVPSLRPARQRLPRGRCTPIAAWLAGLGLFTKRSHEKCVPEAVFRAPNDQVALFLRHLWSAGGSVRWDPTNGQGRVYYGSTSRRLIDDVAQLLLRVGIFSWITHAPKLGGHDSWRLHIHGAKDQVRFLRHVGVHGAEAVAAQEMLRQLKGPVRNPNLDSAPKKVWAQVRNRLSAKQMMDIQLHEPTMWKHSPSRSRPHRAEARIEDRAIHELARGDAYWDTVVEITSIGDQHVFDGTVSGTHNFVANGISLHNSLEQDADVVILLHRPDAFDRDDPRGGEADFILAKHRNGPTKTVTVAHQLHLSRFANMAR
Briefly: DnaB intein splicing inhibitors, dose response, biochemical, cell-free fluorescence (AID 449749). The class given is functional.

For test [15], the target named is Mothers against decapentaplegic homolog 3 (Homo sapiens, UniProt P84022). The experiment in a line: inhibitors of SMAD-driven TGF-beta signaling – dose response (AID 715). Format: functional.
Chain of Mothers against decapentaplegic homolog 3 (P84022 whole entry): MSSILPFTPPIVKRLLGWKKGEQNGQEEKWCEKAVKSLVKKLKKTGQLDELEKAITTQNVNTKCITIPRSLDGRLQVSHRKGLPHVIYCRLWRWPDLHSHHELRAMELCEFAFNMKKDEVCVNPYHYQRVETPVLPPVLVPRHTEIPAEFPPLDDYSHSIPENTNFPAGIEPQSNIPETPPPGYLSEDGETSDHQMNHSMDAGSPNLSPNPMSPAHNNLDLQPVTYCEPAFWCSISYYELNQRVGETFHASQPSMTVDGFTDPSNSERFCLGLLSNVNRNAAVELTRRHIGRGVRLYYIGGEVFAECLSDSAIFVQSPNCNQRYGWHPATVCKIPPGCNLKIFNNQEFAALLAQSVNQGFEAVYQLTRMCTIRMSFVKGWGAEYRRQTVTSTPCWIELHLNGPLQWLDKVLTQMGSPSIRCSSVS
In a further test the target is T6, Protein RecA (Mycobacterium tuberculosis, UniProt P9WHJ3).
T6 sequence (P9WHJ3 whole entry): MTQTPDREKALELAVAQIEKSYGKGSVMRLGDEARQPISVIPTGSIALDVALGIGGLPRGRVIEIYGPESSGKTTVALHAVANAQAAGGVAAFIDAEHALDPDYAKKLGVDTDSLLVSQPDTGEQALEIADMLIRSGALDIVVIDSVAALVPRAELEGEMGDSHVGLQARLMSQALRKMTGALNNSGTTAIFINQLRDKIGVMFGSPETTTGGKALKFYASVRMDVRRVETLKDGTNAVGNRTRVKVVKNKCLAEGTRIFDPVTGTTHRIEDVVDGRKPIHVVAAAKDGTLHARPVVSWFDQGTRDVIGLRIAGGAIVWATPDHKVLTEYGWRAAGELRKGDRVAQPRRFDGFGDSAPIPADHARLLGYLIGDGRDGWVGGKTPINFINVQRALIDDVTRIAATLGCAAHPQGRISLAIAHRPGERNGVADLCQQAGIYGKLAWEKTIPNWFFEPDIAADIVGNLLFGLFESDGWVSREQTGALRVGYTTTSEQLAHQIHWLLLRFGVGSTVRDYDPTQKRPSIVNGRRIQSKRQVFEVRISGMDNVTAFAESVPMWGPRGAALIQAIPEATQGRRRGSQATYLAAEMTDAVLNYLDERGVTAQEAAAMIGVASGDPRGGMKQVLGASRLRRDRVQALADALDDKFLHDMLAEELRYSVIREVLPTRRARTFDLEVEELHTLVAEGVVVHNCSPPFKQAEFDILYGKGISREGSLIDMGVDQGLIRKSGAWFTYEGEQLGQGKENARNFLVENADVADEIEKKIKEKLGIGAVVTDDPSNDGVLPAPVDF
The experiment in a line: Fluorescence Cell-Free Homogeneous Dose Retest to Identify Inhibitors of RecA-Intein Splicing Activity. [Related pubchem assays (depositor defined):AID2097, AID2223, AID489010, AID492950]. The class given is functional.

For test [16], the target named is Lysine-specific demethylase 4C (Homo sapiens, UniProt Q9H3R0). Briefly: inhibition of JMJD2C H3K9me3 demethylation – biochemical, DELFIA europium, cherry-picked samples, dose response (AID 488835). Format: functional.
Chain of Lysine-specific demethylase 4C (Q9H3R0 whole entry): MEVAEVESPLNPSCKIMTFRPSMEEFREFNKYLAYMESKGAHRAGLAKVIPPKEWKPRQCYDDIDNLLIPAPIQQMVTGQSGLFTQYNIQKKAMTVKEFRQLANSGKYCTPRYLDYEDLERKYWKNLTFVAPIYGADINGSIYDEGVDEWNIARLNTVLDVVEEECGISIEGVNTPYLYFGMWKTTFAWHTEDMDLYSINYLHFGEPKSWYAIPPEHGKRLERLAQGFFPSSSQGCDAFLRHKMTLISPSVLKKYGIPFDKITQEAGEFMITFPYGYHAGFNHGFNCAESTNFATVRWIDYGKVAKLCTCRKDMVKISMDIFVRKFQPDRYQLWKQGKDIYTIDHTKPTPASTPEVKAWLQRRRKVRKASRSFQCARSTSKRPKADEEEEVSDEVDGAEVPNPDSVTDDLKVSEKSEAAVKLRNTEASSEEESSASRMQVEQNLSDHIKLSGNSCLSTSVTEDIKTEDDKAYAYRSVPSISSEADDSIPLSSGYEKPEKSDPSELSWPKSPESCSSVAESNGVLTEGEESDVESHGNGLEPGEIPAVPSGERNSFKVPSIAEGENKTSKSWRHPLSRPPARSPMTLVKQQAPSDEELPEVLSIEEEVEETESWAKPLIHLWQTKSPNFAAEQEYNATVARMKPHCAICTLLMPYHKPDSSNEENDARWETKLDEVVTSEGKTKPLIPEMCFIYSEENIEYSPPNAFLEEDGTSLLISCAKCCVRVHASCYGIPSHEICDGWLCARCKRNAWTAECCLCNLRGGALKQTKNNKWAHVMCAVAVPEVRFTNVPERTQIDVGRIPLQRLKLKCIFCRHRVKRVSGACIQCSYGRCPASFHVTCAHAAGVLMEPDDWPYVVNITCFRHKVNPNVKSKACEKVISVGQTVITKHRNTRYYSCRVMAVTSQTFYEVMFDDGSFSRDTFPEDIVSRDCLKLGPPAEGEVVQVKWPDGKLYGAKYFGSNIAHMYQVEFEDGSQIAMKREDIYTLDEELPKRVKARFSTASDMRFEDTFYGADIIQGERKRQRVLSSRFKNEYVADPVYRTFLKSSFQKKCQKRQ
The target in the next test is NADPH oxidase 1 (Homo sapiens, UniProt Q9Y5S8). Format: functional, cell-based.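 Note: Cell-based assay with luminescence read-out, IC50 derived from inhibitor dose-response curves; intracellular ROS from endogenous NOX1 in intact HT29 colon cancer cells; potency of inhibitors that lower the ROS luminescence signal.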
Chain of NADPH oxidase 1 (Q9Y5S8 whole entry): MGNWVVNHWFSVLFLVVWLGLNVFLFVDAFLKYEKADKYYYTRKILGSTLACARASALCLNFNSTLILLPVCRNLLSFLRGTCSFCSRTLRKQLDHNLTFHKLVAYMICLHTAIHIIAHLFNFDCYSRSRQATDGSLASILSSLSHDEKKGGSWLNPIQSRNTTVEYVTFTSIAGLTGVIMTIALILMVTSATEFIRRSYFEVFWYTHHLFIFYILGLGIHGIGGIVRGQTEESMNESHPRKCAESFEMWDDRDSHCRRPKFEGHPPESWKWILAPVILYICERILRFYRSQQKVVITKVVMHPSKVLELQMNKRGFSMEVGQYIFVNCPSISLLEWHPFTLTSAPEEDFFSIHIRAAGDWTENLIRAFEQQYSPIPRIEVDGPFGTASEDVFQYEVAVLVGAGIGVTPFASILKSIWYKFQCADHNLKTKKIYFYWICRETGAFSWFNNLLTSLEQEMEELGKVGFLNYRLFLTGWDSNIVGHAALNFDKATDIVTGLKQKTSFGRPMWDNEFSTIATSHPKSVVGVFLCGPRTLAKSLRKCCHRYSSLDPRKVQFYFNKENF
A short description of test [17]: mitochondrial function rescue without frataxin homolog – Friedreich's ataxia, plus single-dose screen, dose response (AID 1465).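 Note: yeast depleted of Yfh1p frataxin homolog grown on glycerol needing respiration; WST-1 tetrazolium dye reduction as measure of cellular dehydrogenase metabolic activity.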 The class given is functional.

Each structure is given as a SMILES string. Calls of active or inactive are those of the source.

Chain of Tyrosyl-DNA phosphodiesterase 2 (O95551 whole entry): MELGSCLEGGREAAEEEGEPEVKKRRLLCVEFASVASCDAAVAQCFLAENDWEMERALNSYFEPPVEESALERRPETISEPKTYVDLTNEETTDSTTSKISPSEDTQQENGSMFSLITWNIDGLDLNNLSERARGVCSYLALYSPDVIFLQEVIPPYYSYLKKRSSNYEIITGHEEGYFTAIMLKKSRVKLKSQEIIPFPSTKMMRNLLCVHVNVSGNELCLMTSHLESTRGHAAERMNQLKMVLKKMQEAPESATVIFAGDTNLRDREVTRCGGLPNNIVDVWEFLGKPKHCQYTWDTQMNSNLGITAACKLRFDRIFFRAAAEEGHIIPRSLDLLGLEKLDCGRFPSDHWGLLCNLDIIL

What is called EC50 is the concentration that produces a half-maximal response. What is called IC50 is the concentration at which inhibition is half-maximal. For the molecule `Cc1ccc2[nH]c3c(NCc4ccco4)ncnc3c2c1`, the EC50 is 29.1 µM (active) in [1], 17.8 µM (active) in the test with H4 and 20.1 µM (active) in [5]. For the same molecule, the half-inhibitory concentration (IC50) in test [2] was 2.53 µM (active); in [3], > 69.5 µM (not active); in test [4] it was 2.95 µM (active).
Take `O=C1C(Cl)=C(Cl)C(=O)N1c1cc(Cl)cc(Cl)c1`: the IC50 in test [6] is > 100 µM (not active); on Bcl-2-related protein A1 [7], 1.42 µM (active); at Bcl-2-related protein A1 [8], 2.07 µM (active).
With `Cc1cc(C(=O)CN2C(=O)NC(Cc3ccccc3)C2=O)c(C)n1Cc1cccs1` (stereo not drawn), the EC50 in [9] was > 30 µM (not active).
`Nc1nc(S)c2ncn(C3OC(CO)C(O)C3O)c2n1` (stereo not drawn): the half-inhibitory concentration (IC50) in [10] is 4.94 µM (active); at Bcl-2-like protein 1, 34 µM (not active); in test [11], 7.34 µM (active).
For the molecule `Cc1ccc(NC(=O)c2cnc(N3CCN(c4ccccn4)CC3)c3ccccc23)c(Br)c1`, the EC50 at Ion channel NompC is > 29.9 µM (not active); in [12], 8.67 µM (active); on Mucolipin-3 it was 4.96 µM (active).
As usually defined, the AC50 is the midpoint of the concentration-response curve, whichever way the signal moves. As to `CC1(C)CC(=O)C(C2(O)C(=O)NC(=O)NC2=O)=C(O)C1`, the IC50 is 14.5 µM (inactive) in test [13] and 2.3 µM (active) in test [15]. Further, the AC50 was 1.23 µM (active) in [14] and 5.57 µM (active) in test [16]. Also, the EC50 on Protein RecA is 2.23 µM (active).
`O=C(O)c1sc2ccccc2c1Cl`: the IC50 against NADPH oxidase 1 is reported as > 17 µM (not active).
In the case of `CCOc1ccc(N=Nc2c(=O)[nH]n3c(C)cc(C)nc23)cc1`, the EC50 in [17] was > 100 µM (active).
